Results published in patent publication US11202836B2, “PSMA targeted conjugate compounds and uses thereof” (CASE WESTERN RESERVE UNIVERSITY, priority 2018, dated 2021).
*1 amine or outer side, *2 acyl side, *3 side chain or, on linkers, in order; H or OH if unused. Where a SMILES comes first, the peptide text is derived from it. Bridges are numbered along the chain shown (N, C = ends). Roman numbers before positions name the chains, in order. [ ]: non-standard residue; d: D form. The star is where a group is joined. Hexanoyl(6-succinimido-3yl) = O=C1CC([*:1])C(=O)N1CCCCCC(=O)[*:2]; Dolaproine = CO[C@@H]([C@@H]1CCCN1)[C@@H](C)C(=O)O; Dil = CC[C@H](C)[C@H](NC)[C@@H](CC(=O)O)OC; γGlu = O=C(O)[C@H](CCC(=O)[*:2])N[*:1]; PABC = O=C(OCc1ccc(N[*:1])cc1)[*:2]; X4 = C[C@@H](N*)[C@@H](O)c1ccccc1; X1 = O=C(C1CCC(CN[*:1])CC1)[*:2]; Cit = NC(=O)NCCC[C@H](N)C(=O)O; NMeV = CN[C@H](C(=O)O)C(C)C; CO = O=C([*:1])[*:2]; Ahx = NCCCCCC(=O)O

Assays:
metastatic PC3pip model = assay: Metastatic PC3pip survival study (intracardiac GFP-PC3pip); format: in vivo, mice; conditions: dose not stated
Procedure: Male athymic nude mice were injected into the left ventricle of the heart with 1×10^5 GFP labeled PC3pip cells to generate bone metastasis. One week later mice received 160 nmol/kg PSMA-1-VcMMAE-Cy5.5 or PBS every 4 days with a total of 5 doses and the progression of disease was monitored by GFP imaging. Five mice were used in each group.

[1] = test system: heterotopic PC3pip tumors; assay: Heterotopic PC3pip tumor survival / antitumor study; format: in vivo
Text: Male athymic nude mice were implanted subcutaneously with 1×10^6 of PC3pip cells under the right dorsum of the mice. When tumor size reached approximately 100 mm^3 (tumor volume=Length×width^2/2), mice received drugs through tail vein injection. […] Animals were weighed and tumor size measured every other day for 90 days. Cures were defined as no tumor present at end of the 90-day study. When tumors became too large or animals were moribund they were euthanized. Five mice were used in each group.

orthotopic PC3pip tumors = assay: Orthotopic PC3pip tumor survival study; format: in vivo, mice
Procedure: Surgical orthotopic tumor implantation was performed as previously reported. Tumor growth/size was monitored using Siemens Acuson […] ultrasound scanner. When the tumors were at the appropriate size (5 mm as measured by ultrasound, approximately 2 weeks) animals were given PSMA-1-VcMMAE, PSMA-1-VcMMAE-Cy5.5, or PBS every four days with a total of 5 doses. Tumors were monitored every other day by ultrasound. Each group had five mice.

PC3pip cells = assay: In vitro cytotoxicity assay (CCK-8, 72 h), PSMA-positive cells; format: cell-based
Procedure: (§1) Cells (1,000/well) were seeded in 96-well culture plates the day before treatment. Cells were incubated with various concentrations of drugs for 72 hours and cell viability evaluated by CCK-8 (Dojindo). The concentration required to reach 50% of cell proliferation was determined (IC50) by GraphPad Prism 3.0.

[2] = as above; format: cell-based; conditions: 72 hours
Procedure: as §1

PC3flu cells = assay: In vitro cytotoxicity assay (CCK-8, 72 h), PSMA-negative cells; format: cell-based; conditions: relative to PSMA-1-VcMMAE-Cy5.5
Procedure: as §1

[3] = as above; format: cell-based; conditions: 72 hours, CCK-8; read-out: IC50, cytotoxicity to PC3flu cells
Procedure: as §1

[4] = Maximum tolerated dose (single i.v. dose); format: in vivo, mice
Text: Mice were monitored daily for 14 days.

[5] = 3820 nmol/kg every 4 days, 5 doses

SMILES: CC[C@H](C)[C@@H]([C@@H](CC(=O)N1CCC[C@H]1[C@H](OC)[C@@H](C)C(=O)N[C@H](C)[C@@H](O)c1ccccc1)OC)N(C)C(=O)[C@@H](NC(=O)[C@H](C(C)C)N(C)C(=O)OCc1ccc(NC(=O)[C@H](CCCNC(N)=O)NC(=O)[C@@H](NC(=O)CCCCCN2C(=O)CC(SC[C@H](NC(=O)[C@H](CCC(=O)O)NC(=O)[C@H](CCC(=O)O)NC(=O)[C@H](CCC(=O)O)NC(=O)CCCCCNC(=O)C3CCC(CNC(=O)CC[C@H](NC(=O)N[C@@H](CCC(=O)O)C(=O)O)C(=O)O)CC3)C(=O)NCCCCCC(=O)N[C@@H](CCCCN)C(N)=O)C2=O)C(C)C)cc1)C(C)C (stereo partly shown) [PSMA-1-VcMMAE] (I: {Glu-CO-γGlu}-[X1][Ahx]EEEC[Ahx]K-NH2 / II: V[Cit][PABC][NMeV]V[Dil][Dolaproine]-X4; linker I:6-II:N via Hexanoyl(6-succinimido-3yl); C-terminus assumed)
- survival and body weight (metastatic PC3pip model): prolong animal survival time with no body weight loss
- inhibition of PC3pip tumor growth compared with PC3flu tumor growth ([1]; 955 nmol/kg): significantly more effective
- animal survival [1, 5]: all 5 mice survived the 90-day experimental time
- cure (tumor free at end of 90-day study) [1, 5]: 60%
- tumor growth when given every 7 days ([1]; every 7 days, model not stated): greatly inhibited tumor growth
- lowest dose effectively inhibiting tumor growth ([1]; mouse, in vivo): 191 nmol/kg
- body weight loss ([1]; up to highest dose tested, 3820 nmol/kg): No body weight loss
- tumor free mice (orthotopic PC3pip tumors; 3860 nmol/kg, five mice per group): 1 mouse
- tumor growth and survival (orthotopic PC3pip tumors; every four days, 5 doses, significant at 1910 and 3860 nmol/kg): Inhibition of tumor growth and extension of animal survival time
- potency to kill PC3pip cells in the presence of PSMA-1 ligand (PC3pip cells; 10 μM of PSMA-1): reduced to the same potency to kill PC3flu cells
- ratio of IC50's between PC3pip and PC3flu cells (PC3pip cells; 72 hours): 48.2
- effect of protease inhibitor E64 on cell killing potency (PC3pip cells; co-incubation with 50 μM E64): susceptible to E64 protease inhibition
- increase of IC50 against PC3pip cells on removal of the Cy5.5 moiety (PC3pip cells; relative to PSMA-1-VcMMAE-Cy5.5): 6.2 fold
- IC50 ([2]; CCK-8, read-out: IC50, cytotoxicity to PC3pip cells): 4.64 nM
- selectivity ratio ([2]; PC3flu IC50 over PC3pip IC50, read-out: selectivity, differential cytotoxicity PC3pip vs PC3flu cells): 48
- increase of IC50 against PC3flu cells on removal of the Cy5.5 moiety (PC3flu cells): 11.1 fold
- IC50 [3]: 222 nM
- MTD ([4]; mouse, in vivo, iv, single dose i.v., tumor-free athymic nude mice, 14 days): 7.64 µmol/kg
- MTD relative to MMAE ([4]; single dose): more than 10 fold
